In ChEMBL document CHEMBL6103628, “Structural Optimization of Covalent Inhibitors for Deubiquitinase ChlaDUB1 of Chlamydia trachomatis as Antibiotic Agents” (J Med Chem, 2025):
The source made the active and inactive calls. The calls are words filed in the database; no cut-off is given here.

Tests used:
HEK293 = test: Cytotoxicity against HEK293 cells assessed as reduction in cell viability upto 64 ug/mL measured after 20 hrs by XTT assay; type: toxicity, cell-based; conditions: human, hek293, 20 h, dose < 64 µg/ml
[1] = molecular target: T1, Deubiquitinase and deneddylase Dub2 (Chlamydia trachomatis) (UniProt O84875); test: Inhibition of Chlamydia trachomatis DUB2 incubated for 60 mins relative to control
T1 sequence (whole entry): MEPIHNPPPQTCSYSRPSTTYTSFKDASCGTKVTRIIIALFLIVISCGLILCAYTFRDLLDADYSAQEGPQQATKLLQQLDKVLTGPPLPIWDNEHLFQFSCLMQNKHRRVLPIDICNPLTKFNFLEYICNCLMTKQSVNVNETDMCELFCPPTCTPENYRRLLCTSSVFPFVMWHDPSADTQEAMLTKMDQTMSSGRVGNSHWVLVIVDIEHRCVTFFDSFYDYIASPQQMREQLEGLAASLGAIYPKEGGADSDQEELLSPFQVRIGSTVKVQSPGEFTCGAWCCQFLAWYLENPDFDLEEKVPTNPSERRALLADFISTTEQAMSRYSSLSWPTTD

[2] = molecular target: T2, Deubiquitinase and deneddylase Dub1 (Chlamydia trachomatis serovar L2 (strain ATCC VR-902B / DSM 19102 /434/Bu)) (UniProt B0B9A0); test: Non-covalent inhibition of recombinant Chlamydia trachomatis DUB1 (130 to 401 residues) using Ub-Rh110Gly as fluorogenic substrate incubated for 10 to 360 mins by enzymatic analysis; conditions: time 10-360 min
T2 sequence (whole entry): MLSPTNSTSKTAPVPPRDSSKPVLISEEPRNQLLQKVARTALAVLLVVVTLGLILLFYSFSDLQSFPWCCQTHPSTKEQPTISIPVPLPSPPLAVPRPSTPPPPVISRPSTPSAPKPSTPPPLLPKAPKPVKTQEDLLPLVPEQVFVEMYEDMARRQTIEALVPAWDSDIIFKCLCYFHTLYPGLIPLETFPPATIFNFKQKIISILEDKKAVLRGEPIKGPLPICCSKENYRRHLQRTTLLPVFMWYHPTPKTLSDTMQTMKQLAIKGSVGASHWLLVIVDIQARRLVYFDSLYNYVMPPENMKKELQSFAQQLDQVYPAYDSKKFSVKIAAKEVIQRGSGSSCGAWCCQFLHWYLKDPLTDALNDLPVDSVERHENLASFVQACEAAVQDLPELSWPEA

Escherichia coli = test: Antimicrobial activity against Escherichia coli K12 upto 256 microg/ml incubated for 20 hrs by resazurin staining based microtiter plate reader analysis; type: functional, organism-based; conditions: dose <= 256.0 µg/ml
[3] = molecular target: T2, Deubiquitinase and deneddylase Dub1 (Chlamydia trachomatis serovar L2 (strain ATCC VR-902B / DSM 19102 /434/Bu)); test: Inhibition of recombinant Chlamydia trachomatis DUB1 (130 to 401 residues) using Ub-Rh110Gly as fluorogenic substrate at highest concentration incubated for 60 to 360 mins by enzymatic analysis; conditions: time 60-360 min
[4] = molecular target: T3, Deubiquitinase and deneddylase Dub2 (Chlamydia trachomatis, UniProt O84875); test: Inhibition of Chlamydia trachomatis DUB2 incubated for 60 mins
T3 sequence (O84875 whole entry): T1 sequence (whole entry)

[5] = molecular target: T4, Ubiquitin carboxyl-terminal hydrolase isozyme L3 (Homo sapiens) (UniProt P15374); test: Inhibition of human UCHL3 at 35 uM relative to control
T4 sequence (whole entry): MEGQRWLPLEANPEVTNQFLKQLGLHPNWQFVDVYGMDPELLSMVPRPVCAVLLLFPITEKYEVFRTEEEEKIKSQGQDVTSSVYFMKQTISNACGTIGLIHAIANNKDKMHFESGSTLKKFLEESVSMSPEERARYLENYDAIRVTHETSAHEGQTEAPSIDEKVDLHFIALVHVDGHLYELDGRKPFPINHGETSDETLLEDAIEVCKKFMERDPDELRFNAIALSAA

[6] = molecular target: T5, Deubiquitinase and deneddylase Dub1 (Chlamydia trachomatis serovar L2 (strain ATCC VR-902B / DSM 19102 /434/Bu), UniProt B0B9A0); test: Inhibition of recombinant Chlamydia trachomatis DUB1 (130 to 401 residues) using Ub-Rh110Gly as fluorogenic substrate incubated for 60 mins by enzymatic analysis; conditions: read-out: IC50
T5 sequence (B0B9A0 whole entry): T2 sequence (whole entry)

[7] = molecular target: Ubiquitin carboxyl-terminal hydrolase 7 (Homo sapiens) (UniProt Q93009); test: Inhibition of human USP7 at 35 uM relative to control
Sequence of Ubiquitin carboxyl-terminal hydrolase 7 (Homo sapiens) (Q93009 whole entry, looked up): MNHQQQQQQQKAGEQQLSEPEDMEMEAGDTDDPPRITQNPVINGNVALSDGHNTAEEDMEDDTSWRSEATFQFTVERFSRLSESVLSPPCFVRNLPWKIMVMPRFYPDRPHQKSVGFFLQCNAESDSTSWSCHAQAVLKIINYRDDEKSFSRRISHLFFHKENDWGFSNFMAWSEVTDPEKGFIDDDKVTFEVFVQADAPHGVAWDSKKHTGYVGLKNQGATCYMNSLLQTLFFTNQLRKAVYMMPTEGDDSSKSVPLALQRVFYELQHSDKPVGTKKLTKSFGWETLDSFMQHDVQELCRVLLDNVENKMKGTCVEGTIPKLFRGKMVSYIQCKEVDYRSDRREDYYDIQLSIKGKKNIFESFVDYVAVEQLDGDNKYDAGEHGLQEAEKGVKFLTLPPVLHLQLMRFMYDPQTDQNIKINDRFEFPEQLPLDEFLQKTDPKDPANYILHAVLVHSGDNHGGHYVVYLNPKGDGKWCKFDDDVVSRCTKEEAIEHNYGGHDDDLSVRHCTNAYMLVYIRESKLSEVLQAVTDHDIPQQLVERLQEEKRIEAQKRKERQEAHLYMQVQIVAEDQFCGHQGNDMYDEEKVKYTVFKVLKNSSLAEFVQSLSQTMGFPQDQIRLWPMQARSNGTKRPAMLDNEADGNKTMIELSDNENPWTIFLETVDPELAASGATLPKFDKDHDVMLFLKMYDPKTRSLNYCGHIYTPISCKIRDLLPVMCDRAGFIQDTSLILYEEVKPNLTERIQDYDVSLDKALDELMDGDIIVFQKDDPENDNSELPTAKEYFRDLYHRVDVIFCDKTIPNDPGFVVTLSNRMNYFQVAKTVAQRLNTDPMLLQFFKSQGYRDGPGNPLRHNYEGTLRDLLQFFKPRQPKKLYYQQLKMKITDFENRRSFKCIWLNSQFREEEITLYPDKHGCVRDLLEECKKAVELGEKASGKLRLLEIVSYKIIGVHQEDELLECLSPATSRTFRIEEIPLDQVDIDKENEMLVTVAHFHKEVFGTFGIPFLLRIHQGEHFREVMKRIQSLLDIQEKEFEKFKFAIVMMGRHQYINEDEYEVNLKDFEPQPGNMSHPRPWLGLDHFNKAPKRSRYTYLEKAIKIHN

[8] = molecular target: T6, Ubiquitin carboxyl-terminal hydrolase 28 (Homo sapiens) (UniProt Q96RU2); test: Inhibition of human USP28 at 35 uM relative to control
T6 sequence (whole entry): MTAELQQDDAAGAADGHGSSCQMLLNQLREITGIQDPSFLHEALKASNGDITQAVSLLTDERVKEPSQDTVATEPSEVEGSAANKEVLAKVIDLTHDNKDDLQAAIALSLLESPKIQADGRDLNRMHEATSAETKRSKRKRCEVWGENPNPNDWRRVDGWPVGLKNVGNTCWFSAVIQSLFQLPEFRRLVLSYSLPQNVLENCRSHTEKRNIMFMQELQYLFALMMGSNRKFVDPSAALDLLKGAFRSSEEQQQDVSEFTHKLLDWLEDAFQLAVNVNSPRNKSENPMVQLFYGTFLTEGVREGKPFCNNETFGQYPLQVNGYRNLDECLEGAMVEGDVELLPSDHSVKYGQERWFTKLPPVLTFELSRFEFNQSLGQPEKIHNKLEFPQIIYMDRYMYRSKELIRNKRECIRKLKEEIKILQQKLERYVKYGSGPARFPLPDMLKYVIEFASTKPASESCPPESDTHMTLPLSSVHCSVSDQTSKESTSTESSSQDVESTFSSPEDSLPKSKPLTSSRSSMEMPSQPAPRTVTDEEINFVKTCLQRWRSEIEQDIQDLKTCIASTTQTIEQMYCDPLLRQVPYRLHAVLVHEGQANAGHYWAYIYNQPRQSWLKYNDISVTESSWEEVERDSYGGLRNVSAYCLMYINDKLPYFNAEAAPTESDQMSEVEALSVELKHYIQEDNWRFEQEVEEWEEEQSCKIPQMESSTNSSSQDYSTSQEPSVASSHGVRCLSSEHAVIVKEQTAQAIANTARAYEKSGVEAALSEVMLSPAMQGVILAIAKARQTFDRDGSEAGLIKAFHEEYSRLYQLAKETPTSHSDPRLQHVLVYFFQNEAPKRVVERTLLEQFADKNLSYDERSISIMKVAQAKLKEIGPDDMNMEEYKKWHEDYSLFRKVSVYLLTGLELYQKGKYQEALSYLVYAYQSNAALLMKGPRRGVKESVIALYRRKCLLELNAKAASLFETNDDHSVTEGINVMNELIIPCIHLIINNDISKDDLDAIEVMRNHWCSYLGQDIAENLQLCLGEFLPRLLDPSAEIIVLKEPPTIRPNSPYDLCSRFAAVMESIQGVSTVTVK

[9] = molecular target: T1, Deubiquitinase and deneddylase Dub2 (Chlamydia trachomatis); test: Mixed type inhibition of Chlamydia trachomatis DUB2 incubated for 60 mins
HEp-2 = test: Cytotoxicity against human HEp-2 cells assessed as reduction in cell viability at 4 to 256 ug/mL measured after 20 hrs by XTT assay; type: toxicity, cell-based; conditions: hep-2, 20 h, dose 4-256 µg/ml
[10] = Cytotoxicity against HDFa cells assessed as cell viability at 128 ug/mL measured after 20 hrs by XTT assay relative to control; type: toxicity, cell-based; conditions: human, at 128 µg/mL, read-out: Activity

N#Cc1nccc(C(=O)NCc2nn(C(=O)Cc3ccccc3)c3ccccc23)n1
Activity (HEK293): Non-toxic
inhibition [1]: 100%
inhibition [2]: Active
Activity (Escherichia coli): inactive
inhibition [3]: Active; Complete Inhibition Not Observed
IC50 [4]: 30 µM
inhibition [5]: < 25%
IC50 [6]: 0.97 µM
inhibition [7]: < 25%
inhibition [8]: < 25%
inhibition [9]: Active
Activity (HEp-2): Non-toxic
viability at 20 h, 128 ug/mL [10]: 67%
